This passage reports IC50 results from patent US20240409585A1, “MACROCYCLIC IMMUNOMODULATORS” (priority 2021, published 2024).

Numbered stars: 1 amine (or outer) side, 2 acyl side, 3 side chain; on linkers, the order of the positions; unused ones are H or OH. Bridge positions count the residues as written; N and C are the ends. Square brackets hold non-standard residues; d marks the D form. Peptide text beside a SMILES is read from it. * marks the point of attachment. Bip(4'-COOH) = N[C@@H](Cc1ccc(-c2ccc(C(=O)O)cc2)cc1)C(=O)O; Bip(4'-NHAc) = CC(=O)Nc1ccc(-c2ccc(C[C@H](N)C(=O)O)cc2)cc1; X1 = O=C(C[C@H](N[*:1])C(=O)[*:2])NS(=O)(=O)c1ccc(Cl)cc1F; X14 = O=C(C[C@H](N[*:1])C(=O)[*:2])NS(=O)(=O)c1ccc(F)cc1; X7 = O=C(C[C@H](N[*:1])C(=O)[*:2])NS(=O)(=O)c1ccccc1F; Phe(3-CF3) = N[C@@H](Cc1cccc(C(F)(F)F)c1)C(=O)O; Ala(morpholin-4-yl) = N[C@@H](CN1CCOCC1)C(=O)O; Phe(4-COOH) = N[C@@H](Cc1ccc(C(=O)O)cc1)C(=O)O; X4 = O=C([C@H](Cc1ccc2cc[nH]c2c1)N[*:1])[*:2]; Bip = N[C@@H](Cc1ccc(-c2ccccc2)cc1)C(=O)O; Phe(3-Me) = Cc1cccc(C[C@H](N)C(=O)O)c1; Cha = N[C@@H](CC1CCCCC1)C(=O)O; Carboxymethyl = O=C(O)C*; NMeA = CN[C@@H](C)C(=O)O; Nle = CCCC[C@H](N)C(=O)O; Orn = NCCC[C@H](N)C(=O)O; Dab = NCC[C@H](N)C(=O)O

Assay [1] deals with T1, PE-labeled human PD-L1-Ig binding to Jurkat cell line over-expressing human PD-1 (Jurkat-PD-1) (Homo sapiens, UniProt Q15116).
T1 construct: expressed in transfected cells; host or cells: Jurkat
The assay is described as follows: Jurkat-PD-1 Cell Binding High-Content Screening Assay (CBA): Method 1. Particulars: Jurkat-PD-1 cells, PE-labeled PD-L1-Ig.

Assay [2] deals with T1, PE-labeled human PD-L1-Ig binding to Jurkat cell line over-expressing human PD-1 (Jurkat-PD-1). Put plainly: Jurkat-PD-1 Cell Binding High-Content Screening Assay (CBA): Method 2 (presence and absence of tween-20). Particulars: Jurkat-PD-1 cells, PE-labeled PD-L1-Ig 20 nM, presence or absence of tween-20 not given. In a few lines: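 Compounds incubated with Jurkat cells overexpressing human PD-1 for 2 h at 37° C, tested with and without tween-20 to flag aggregation. PE-labeled human PD-L1-Ig (20 nM final) added in DMEM/10% FCS; binding read by high-content imaging.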

Setting [3] is: head μM, read-out: CBA Method 2 μM.

T1 sequence (Q15116 25-288): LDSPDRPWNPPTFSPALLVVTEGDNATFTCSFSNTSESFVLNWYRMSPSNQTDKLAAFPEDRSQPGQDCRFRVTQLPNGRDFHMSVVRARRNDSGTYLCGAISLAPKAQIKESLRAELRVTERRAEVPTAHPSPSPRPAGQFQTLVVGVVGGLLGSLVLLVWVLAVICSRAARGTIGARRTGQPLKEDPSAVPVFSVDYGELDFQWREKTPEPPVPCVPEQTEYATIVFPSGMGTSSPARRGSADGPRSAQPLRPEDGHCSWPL

Turning to `CC(C)C[C@H]1NC(=O)[C@H](C)N(C)C(=O)[C@H](CCCN)NC(=O)[C@H](Cc2ccc(-c3ccccc3)cc2)NC(=O)[C@H](Cc2ccc(-c3ccc(C(=O)O)cc3)cc2)NC(=O)[C@H](Cc2cccc(C(F)(F)F)c2)NC(=O)[C@H](CC(=O)O)NC(=O)[C@H](Cc2ccc(-c3ccc(C(=O)O)cc3)cc2)NC(=O)[C@H](Cc2ccc(OCC(=O)O)cc2)NC(=O)CSC[C@@H](C(=O)N[C@@H](CCN)C(N)=O)NC(=O)[C@H](CC(N)=O)NC(=O)[C@H](C(C)C)NC(=O)[C@H](CC2CCCCC2)NC(=O)[C@H](CCN)NC1=O` [Example 5086] ({CH2CO}-Y(Carboxymethyl)[Bip(4'-COOH)]D[Phe(3-CF3)][Bip(4'-COOH)][Bip][Orn][NMeA][dL][Dab][Cha]VNC[Dab]-NH2; thioether N-14), the IC50 came out at 5.5 nM in assay [1] (nM, read-out: CBA Method 1) and 9.9 nM in assay [2] (nM, read-out: CBA Method 2).
In the case of `Cc1cccc(C[C@@H]2NC(=O)[C@H](CC(=O)O)NC(=O)[C@H](Cc3ccc(C(=O)O)cc3)NC(=O)[C@H](CC(C)C)NC(=O)CSC[C@@H](C(=O)N[C@@H](CCN)C(N)=O)NC(=O)[C@H](CCCN)NC(=O)[C@H](C(C)C)NC(=O)[C@H](CC3CCCCC3)NC(=O)[C@H](CCN)NC(=O)[C@@H](CC(C)C)NC(=O)[C@H](C)N(C)C(=O)[C@H](CCC(N)=O)NC(=O)[C@H](Cc3ccc(-c4ccccc4)cc3)NC(=O)[C@H](Cc3ccc(-c4ccc(C(=O)O)cc4)cc3)NC2=O)c1` [Example 5063] ({CH2CO}-L[Phe(4-COOH)]D[Phe(3-Me)][Bip(4'-COOH)][Bip]Q[NMeA][dL][Dab][Cha]V[Orn]C[Dab]-NH2; thioether N-14), the IC50 was 5.4 nM in assay [1] (μM, read-out: CBA Method 1 μM) and 5.2 nM in assay [2] (setting [3]).
Turning to `CC(C)C[C@H]1NC(=O)[C@H](C)N(C)C(=O)[C@H](CCC(N)=O)NC(=O)[C@H](Cc2ccc(-c3ccccc3)cc2)NC(=O)[C@H](Cc2ccc(C(=O)O)cc2)NC(=O)[C@H](Cc2cccc(C(F)(F)F)c2)NC(=O)[C@H](CC(=O)NS(=O)(=O)c2ccccc2F)NC(=O)[C@H](Cc2ccc(C(=O)O)cc2)NC(=O)[C@H](CN2CCOCC2)NC(=O)CSC[C@@H](C(=O)N[C@@H](CCN)C(N)=O)NC(=O)[C@H](CCCN)NC(=O)[C@H](C(C)C)NC(=O)[C@H](CC2CCCCC2)NC(=O)[C@H](CCN)NC1=O` [Example 5077] ({CH2CO}-[Ala(morpholin-4-yl)][Phe(4-COOH)][X7][Phe(3-CF3)][Phe(4-COOH)][Bip]Q[NMeA][dL][Dab][Cha]V[Orn]C[Dab]-NH2; thioether N-14), the IC50 in assay [1] (μM, read-out: CBA Method 1 μM) was determined as 345 nM; in assay [2] (setting [3]) it was 338 nM.
For `Cc1cccc(C[C@@H]2NC(=O)[C@H](CC(=O)O)NC(=O)[C@H](Cc3ccc(OCC(=O)O)cc3)NC(=O)[C@H](CN3CCOCC3)NC(=O)CSC[C@@H](C(=O)N[C@@H](CCN)C(N)=O)NC(=O)[C@H](CCCN)NC(=O)[C@H](C(C)C)NC(=O)[C@H](CC3CCCCC3)NC(=O)[C@H](CCN)NC(=O)[C@@H](CC(C)C)NC(=O)[C@H](C)N(C)C(=O)[C@H](CCC(N)=O)NC(=O)[C@H](Cc3ccc(-c4ccccc4)cc3)NC(=O)[C@H](Cc3ccc4cc[nH]c4c3)NC2=O)c1` [Example 5037] ({CH2CO}-[Ala(morpholin-4-yl)]Y(Carboxymethyl)D[Phe(3-Me)][X4][Bip]Q[NMeA][dL][Dab][Cha]V[Orn]C[Dab]-NH2; thioether N-14), the IC50 in assay [1] (μM, read-out: CBA Method 1 μM) worked out at 13.8 nM; in assay [2] (setting [3]), 30.4 nM.
Turning to `CC(C)C[C@H]1NC(=O)[C@H](C)N(C)C(=O)[C@H](CCC(N)=O)NC(=O)[C@H](Cc2ccc(-c3ccccc3)cc2)NC(=O)[C@H](Cc2ccc(C(=O)O)cc2)NC(=O)[C@H](Cc2cccc(C(F)(F)F)c2)NC(=O)[C@H](CC(=O)NS(=O)(=O)c2ccc(Cl)cc2F)NC(=O)[C@H](Cc2ccc(C(=O)O)cc2)NC(=O)[C@H](CN2CCOCC2)NC(=O)CSC[C@@H](C(=O)N[C@@H](CCN)C(N)=O)NC(=O)[C@H](CCCN)NC(=O)[C@H](C(C)C)NC(=O)[C@H](CC2CCCCC2)NC(=O)[C@H](CCN)NC1=O` [Example 5081] ({CH2CO}-[Ala(morpholin-4-yl)][Phe(4-COOH)][X1][Phe(3-CF3)][Phe(4-COOH)][Bip]Q[NMeA][dL][Dab][Cha]V[Orn]C[Dab]-NH2; thioether N-14), the IC50 in assay [1] (μM, read-out: CBA Method 1 μM) came to 173 nM; in assay [2] (setting [3]), 113 nM.
For the compound `Cc1cccc(C[C@@H]2NC(=O)[C@H](CC(=O)O)NC(=O)[C@H](Cc3ccc(C(=O)O)cc3)NC(=O)[C@H](CN3CCOCC3)NC(=O)CSC[C@@H](C(=O)N[C@@H](CCN)C(N)=O)NC(=O)[C@H](CCCN)NC(=O)[C@H](C(C)C)NC(=O)[C@H](CC3CCCCC3)NC(=O)[C@H](CCN)NC(=O)[C@@H](CC(C)C)NC(=O)[C@H](C)N(C)C(=O)[C@H](CCC(N)=O)NC(=O)[C@H](Cc3ccc(-c4ccccc4)cc3)NC(=O)[C@H](Cc3ccc(-c4ccc(C(=O)O)cc4)cc3)NC2=O)c1` [Example 5059] ({CH2CO}-[Ala(morpholin-4-yl)][Phe(4-COOH)]D[Phe(3-Me)][Bip(4'-COOH)][Bip]Q[NMeA][dL][Dab][Cha]V[Orn]C[Dab]-NH2; thioether N-14), the IC50 was found to be 2.9 nM in assay [1] (μM, read-out: CBA Method 1 μM) and 3.3 nM in assay [2] (setting [3]).
Turning to `COC[C@@H]1NC(=O)CSC[C@@H](C(=O)N[C@@H](CCN)C(N)=O)NC(=O)[C@H](CCCN)NC(=O)[C@H](C(C)C)NC(=O)[C@H](CC2CCCCC2)NC(=O)[C@H](CCN)NC(=O)[C@@H](CC(C)C)NC(=O)[C@H](C)N(C)C(=O)[C@H](CCC(N)=O)NC(=O)[C@H](Cc2ccc(-c3ccccc3)cc2)NC(=O)[C@H](Cc2ccc(-c3ccc(NC(C)=O)cc3)cc2)NC(=O)[C@H](Cc2cccc(C)c2)NC(=O)[C@H](CC(=O)O)NC(=O)[C@H](Cc2ccc(OCC(=O)O)cc2)NC1=O` [Example 5056] ({CH2CO}-S(Me)Y(Carboxymethyl)D[Phe(3-Me)][Bip(4'-NHAc)][Bip]Q[NMeA][dL][Dab][Cha]V[Orn]C[Dab]-NH2; thioether N-14), the IC50 in assay [1] (μM, read-out: CBA Method 1 μM) amounted to 10 nM; in assay [2] (setting [3]), 9.5 nM.
Consider `CCCC[C@@H]1NC(=O)CSC[C@@H](C(=O)N[C@@H](CCN)C(N)=O)NC(=O)[C@H](CCC(=O)O)NC(=O)[C@H](C(C)C)NC(=O)[C@H](CC2CCCCC2)NC(=O)[C@H](CCN)NC(=O)[C@@H](CC(C)C)NC(=O)[C@H](C)N(C)C(=O)[C@H](CCCN)NC(=O)[C@H](Cc2ccc(-c3ccccc3)cc2)NC(=O)[C@H](Cc2ccc(-c3ccc(C(=O)O)cc3)cc2)NC(=O)[C@H](Cc2cccc(C(F)(F)F)c2)NC(=O)[C@H](CC(=O)O)NC(=O)[C@H](Cc2ccc(-c3ccc(C(=O)O)cc3)cc2)NC1=O` [Example 5089] ({CH2CO}-[Nle][Bip(4'-COOH)]D[Phe(3-CF3)][Bip(4'-COOH)][Bip][Orn][NMeA][dL][Dab][Cha]VEC[Dab]-NH2; thioether N-14), for which the IC50 in assay [1] (μM, read-out: CBA Method 1 μM) came to 10 nM; in assay [2] (setting [3]) it was 110 nM.
With `CC(C)C[C@H]1NC(=O)[C@H](C)N(C)C(=O)[C@H](CCC(N)=O)NC(=O)[C@H](Cc2ccc(-c3ccccc3)cc2)NC(=O)[C@H](Cc2ccc(C(=O)O)cc2)NC(=O)[C@H](Cc2cccc(C(F)(F)F)c2)NC(=O)[C@H](CC(=O)NS(=O)(=O)c2ccc(F)cc2)NC(=O)[C@H](Cc2ccc(C(=O)O)cc2)NC(=O)[C@H](CN2CCOCC2)NC(=O)CSC[C@@H](C(=O)N[C@@H](CCN)C(N)=O)NC(=O)[C@H](CCCN)NC(=O)[C@H](C(C)C)NC(=O)[C@H](CC2CCCCC2)NC(=O)[C@H](CCN)NC1=O` [Example 5079] ({CH2CO}-[Ala(morpholin-4-yl)][Phe(4-COOH)][X14][Phe(3-CF3)][Phe(4-COOH)][Bip]Q[NMeA][dL][Dab][Cha]V[Orn]C[Dab]-NH2; thioether N-14), the IC50 was found to be 138 nM in assay [1] (μM, read-out: CBA Method 1 μM) and 229 nM in assay [2] (setting [3]).
Regarding `CC(=O)Nc1ccc(-c2ccc(C[C@@H]3NC(=O)[C@H](Cc4cccc(C(F)(F)F)c4)NC(=O)[C@H](CC(=O)O)NC(=O)[C@H](Cc4ccc(-c5ccc(C(=O)O)cc5)cc4)NC(=O)[C@H](CN4CCOCC4)NC(=O)CSC[C@@H](C(=O)N[C@@H](CCN)C(N)=O)NC(=O)[C@H](CCN)NC(=O)[C@H](C(C)C)NC(=O)[C@H](CC4CCCCC4)NC(=O)[C@H](CCN)NC(=O)[C@@H](CC(C)C)NC(=O)[C@H](C)N(C)C(=O)[C@H](CCCN)NC(=O)[C@H](Cc4ccc(-c5ccccc5)cc4)NC3=O)cc2)cc1` [Example 5091] ({CH2CO}-[Ala(morpholin-4-yl)][Bip(4'-COOH)]D[Phe(3-CF3)][Bip(4'-NHAc)][Bip][Orn][NMeA][dL][Dab][Cha]V[Dab]C[Dab]-NH2; thioether N-14), the IC50 came out at 90 nM in assay [1] (μM, read-out: CBA Method 1 μM) and 70 nM in assay [2] (setting [3]).
On the same counts, the results for `CCCC[C@@H]1NC(=O)CSC[C@@H](C(=O)N[C@@H](CCN)C(N)=O)NC(=O)[C@H](CCC(=O)O)NC(=O)[C@H](C(C)C)NC(=O)[C@H](CC2CCCCC2)NC(=O)[C@H](CCN)NC(=O)[C@@H](CC(C)C)NC(=O)[C@H](C)N(C)C(=O)[C@H](Cc2ccc(OCC(=O)O)cc2)NC(=O)[C@H](Cc2ccc(-c3ccccc3)cc2)NC(=O)[C@H](Cc2ccc(OCC(=O)O)cc2)NC(=O)[C@H](Cc2cccc(C(F)(F)F)c2)NC(=O)[C@H](CC(=O)O)NC(=O)[C@H](Cc2ccc(-c3ccc(C(=O)O)cc3)cc2)NC1=O` [Example 5074] ({CH2CO}-[Nle][Bip(4'-COOH)]D[Phe(3-CF3)]Y(Carboxymethyl)[Bip]Y(Carboxymethyl)[NMeA][dL][Dab][Cha]VEC[Dab]-NH2; thioether N-14) are 40.1 nM and 26.7 nM.
